Measurements from PMC8400920, “Metabolism of Diterpenoids Derived from the Bark of Cinnamomum cassia in Human Liver Microsomes” (Pharmaceutics, 2021).

Assays:
Assay in all cases: AHC metabolism by recombinant cDNA-expressed CYP isoform
Format in all cases: in vitro ADME
Conditions in all cases: 10 µM AHC, 10 pmol recombinant CYP, NGS, 37 °C, 60 min
CYP1A2 = target: T1, CYP1A2 (Homo sapiens, UniProt P05177)
T1 construct: purchased Corning Gentest
T1 sequence (P05177 1-516): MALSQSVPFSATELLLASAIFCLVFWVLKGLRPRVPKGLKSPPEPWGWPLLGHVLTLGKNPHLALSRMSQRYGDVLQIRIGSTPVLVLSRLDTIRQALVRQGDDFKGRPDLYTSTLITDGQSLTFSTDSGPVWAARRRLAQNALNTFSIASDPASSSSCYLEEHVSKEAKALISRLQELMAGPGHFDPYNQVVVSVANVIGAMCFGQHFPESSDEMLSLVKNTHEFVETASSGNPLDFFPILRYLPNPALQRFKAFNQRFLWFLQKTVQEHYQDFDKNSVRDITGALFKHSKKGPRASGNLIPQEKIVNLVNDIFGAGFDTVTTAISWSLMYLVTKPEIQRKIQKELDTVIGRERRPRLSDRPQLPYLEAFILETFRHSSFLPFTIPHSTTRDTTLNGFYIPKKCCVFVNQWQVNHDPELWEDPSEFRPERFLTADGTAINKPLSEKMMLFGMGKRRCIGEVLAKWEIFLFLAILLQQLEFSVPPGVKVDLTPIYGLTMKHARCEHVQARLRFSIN
Protocol: (§1) To identify the metabolic enzymes for AHC, 10 µM AHC was incubated with 10 pmol of human recombinant cDNA-expressed CYP isoforms (CYP1A1, 1A2, 2A6, 2B6, 2C8, 2C9, 2C19, 2D6, 2E1, 3A4, and 3A5) in the presence of 0.1 M potassium phosphate buffer (pH 7.4). The reaction was initiated by adding 100 µL of NGS at 37 °C for 60 min. Then, the mixture was suspended by adding 400 µL of ice-cold 100% ACN. Following centrifugation at 15,700× g for 10 min at 4 °C, the supernatant was transferred to a new tube and evaporated using a speed-vacuum concentrator. Next, the dried sample was diluted with 100 µL of 20% MeOH containing 0.1% formic acid, and a 5 µL aliquot was injected into a C18 column for LC–MS/MS analysis.
(§2) To identify the CYP isoforms involved in AHC metabolism, AHC (10 µM) was incubated with eleven cDNA-expressed recombinant CYP isoforms (CYP1A1, CYP1A2, CYP2A6, CYP2B6, CYP2C8, CYP2C9, CYP2C19, CYP2D6, CYP2E1, CYP3A4, and CYP3A5) in the presence of the NGS. […] However, the metabolites of AHC were not observed from reactions with other CYPs. Thus, in the metabolism of AHC in HLMs, CYP3A4 was involved as the main enzyme, and four types of metabolites were generated.

CYP2A6 = target: T2, CYP2A6 (Homo sapiens, UniProt P11509)
T2 construct: purchased Corning Gentest
T2 sequence (P11509 1-494): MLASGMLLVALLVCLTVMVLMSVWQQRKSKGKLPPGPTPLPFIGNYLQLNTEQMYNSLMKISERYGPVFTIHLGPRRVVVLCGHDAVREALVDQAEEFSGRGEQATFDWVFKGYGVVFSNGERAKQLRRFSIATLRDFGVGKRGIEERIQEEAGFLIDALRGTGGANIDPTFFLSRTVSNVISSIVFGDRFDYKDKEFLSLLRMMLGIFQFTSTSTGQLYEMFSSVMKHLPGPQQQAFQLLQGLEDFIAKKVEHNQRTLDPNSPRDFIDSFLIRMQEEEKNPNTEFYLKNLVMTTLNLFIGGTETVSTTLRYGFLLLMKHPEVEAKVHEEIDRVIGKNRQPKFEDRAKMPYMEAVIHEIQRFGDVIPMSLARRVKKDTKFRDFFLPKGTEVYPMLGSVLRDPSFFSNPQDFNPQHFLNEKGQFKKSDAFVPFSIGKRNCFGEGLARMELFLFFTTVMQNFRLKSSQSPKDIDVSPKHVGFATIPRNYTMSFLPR
Protocol: as §1, §2

CYP2B6 = target: T3, CYP2B6 (Homo sapiens, UniProt P20813)
T3 construct: purchased Corning Gentest
T3 sequence (P20813 1-491): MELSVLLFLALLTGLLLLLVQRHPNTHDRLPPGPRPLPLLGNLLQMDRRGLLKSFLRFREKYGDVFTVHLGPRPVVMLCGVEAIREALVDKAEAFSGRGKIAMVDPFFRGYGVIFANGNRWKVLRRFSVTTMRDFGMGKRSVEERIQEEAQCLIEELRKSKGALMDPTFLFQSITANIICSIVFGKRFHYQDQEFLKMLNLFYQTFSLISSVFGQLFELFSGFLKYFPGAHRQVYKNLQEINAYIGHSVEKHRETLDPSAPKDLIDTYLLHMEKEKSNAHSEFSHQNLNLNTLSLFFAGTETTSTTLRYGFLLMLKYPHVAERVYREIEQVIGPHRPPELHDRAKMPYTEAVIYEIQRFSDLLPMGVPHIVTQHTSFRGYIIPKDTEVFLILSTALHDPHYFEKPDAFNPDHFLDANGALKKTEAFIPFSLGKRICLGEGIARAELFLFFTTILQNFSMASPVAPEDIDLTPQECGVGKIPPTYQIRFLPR
Protocol: as §1, §2

CYP2C19 = target: T4, CYP2C19 (Homo sapiens, UniProt P33261)
T4 construct: purchased Corning Gentest
Protocol: as §1, §2

CYP2C8 = target: T5, CYP2C8 (Homo sapiens, UniProt P10632)
T5 construct: purchased Corning Gentest
T5 sequence (P10632 1-490): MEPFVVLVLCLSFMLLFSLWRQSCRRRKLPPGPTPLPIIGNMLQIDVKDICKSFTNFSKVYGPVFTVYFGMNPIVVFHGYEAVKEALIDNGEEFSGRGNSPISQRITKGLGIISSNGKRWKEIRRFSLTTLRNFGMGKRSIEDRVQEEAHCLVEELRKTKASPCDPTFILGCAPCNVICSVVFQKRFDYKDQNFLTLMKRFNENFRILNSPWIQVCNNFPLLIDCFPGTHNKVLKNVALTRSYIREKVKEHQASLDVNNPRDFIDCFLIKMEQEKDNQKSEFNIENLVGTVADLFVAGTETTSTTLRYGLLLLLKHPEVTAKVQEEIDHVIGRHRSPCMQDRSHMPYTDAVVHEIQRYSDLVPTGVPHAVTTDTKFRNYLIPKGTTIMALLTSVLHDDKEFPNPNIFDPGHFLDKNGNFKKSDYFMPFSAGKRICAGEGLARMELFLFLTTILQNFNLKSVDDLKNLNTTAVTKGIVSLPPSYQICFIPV
Protocol: as §1, §2

CYP2C9 = target: T6, CYP2C9 (Homo sapiens, UniProt P11712)
T6 construct: purchased Corning Gentest
Protocol: as §1, §2

CYP2D6 = target: T7, CYP2D6 (Homo sapiens, UniProt P10635)
T7 construct: purchased Corning Gentest
Protocol: as §1, §2

CYP2E1 = target: T8, CYP2E1 (Homo sapiens, UniProt P05181)
T8 construct: purchased Corning Gentest
Protocol: as §1, §2

T8 sequence (P05181 whole entry): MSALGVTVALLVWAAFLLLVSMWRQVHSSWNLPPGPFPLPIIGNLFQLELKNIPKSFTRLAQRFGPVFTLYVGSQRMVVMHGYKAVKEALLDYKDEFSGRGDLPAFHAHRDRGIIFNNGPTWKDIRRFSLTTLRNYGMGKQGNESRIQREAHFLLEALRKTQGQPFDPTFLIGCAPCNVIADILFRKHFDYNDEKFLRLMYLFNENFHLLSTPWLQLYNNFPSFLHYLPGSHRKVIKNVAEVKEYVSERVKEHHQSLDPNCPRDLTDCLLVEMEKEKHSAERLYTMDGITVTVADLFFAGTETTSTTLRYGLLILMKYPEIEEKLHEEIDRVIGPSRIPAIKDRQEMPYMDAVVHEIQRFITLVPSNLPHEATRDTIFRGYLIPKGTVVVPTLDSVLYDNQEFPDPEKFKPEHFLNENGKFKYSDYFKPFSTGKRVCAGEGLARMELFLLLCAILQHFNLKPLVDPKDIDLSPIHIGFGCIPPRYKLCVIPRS
T7 sequence (P10635 whole entry): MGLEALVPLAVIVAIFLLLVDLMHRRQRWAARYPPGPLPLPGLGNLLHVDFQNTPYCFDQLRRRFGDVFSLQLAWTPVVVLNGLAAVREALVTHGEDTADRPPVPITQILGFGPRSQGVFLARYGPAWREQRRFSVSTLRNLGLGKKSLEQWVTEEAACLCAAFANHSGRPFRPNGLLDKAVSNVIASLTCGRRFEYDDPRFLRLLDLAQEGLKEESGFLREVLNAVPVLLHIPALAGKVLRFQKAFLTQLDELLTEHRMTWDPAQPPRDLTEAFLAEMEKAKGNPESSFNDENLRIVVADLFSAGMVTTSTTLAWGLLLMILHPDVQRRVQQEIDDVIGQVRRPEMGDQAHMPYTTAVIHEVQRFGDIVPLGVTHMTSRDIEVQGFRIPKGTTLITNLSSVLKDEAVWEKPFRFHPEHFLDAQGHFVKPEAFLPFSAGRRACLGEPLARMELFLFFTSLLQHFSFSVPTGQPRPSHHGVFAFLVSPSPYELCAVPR
T6 sequence (P11712 whole entry): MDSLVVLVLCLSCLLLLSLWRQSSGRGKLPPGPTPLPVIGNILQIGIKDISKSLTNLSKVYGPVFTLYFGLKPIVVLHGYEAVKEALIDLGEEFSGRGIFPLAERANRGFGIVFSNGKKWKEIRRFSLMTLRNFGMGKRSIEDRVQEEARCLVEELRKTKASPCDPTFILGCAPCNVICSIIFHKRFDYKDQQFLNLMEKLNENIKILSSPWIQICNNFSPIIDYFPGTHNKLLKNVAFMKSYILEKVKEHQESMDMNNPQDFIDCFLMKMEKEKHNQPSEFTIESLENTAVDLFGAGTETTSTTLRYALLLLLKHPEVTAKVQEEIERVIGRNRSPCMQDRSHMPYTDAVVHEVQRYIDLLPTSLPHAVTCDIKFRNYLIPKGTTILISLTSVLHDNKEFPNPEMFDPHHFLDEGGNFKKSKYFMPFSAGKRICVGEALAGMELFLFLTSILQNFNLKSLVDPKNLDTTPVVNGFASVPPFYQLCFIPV
T4 sequence (P33261 whole entry): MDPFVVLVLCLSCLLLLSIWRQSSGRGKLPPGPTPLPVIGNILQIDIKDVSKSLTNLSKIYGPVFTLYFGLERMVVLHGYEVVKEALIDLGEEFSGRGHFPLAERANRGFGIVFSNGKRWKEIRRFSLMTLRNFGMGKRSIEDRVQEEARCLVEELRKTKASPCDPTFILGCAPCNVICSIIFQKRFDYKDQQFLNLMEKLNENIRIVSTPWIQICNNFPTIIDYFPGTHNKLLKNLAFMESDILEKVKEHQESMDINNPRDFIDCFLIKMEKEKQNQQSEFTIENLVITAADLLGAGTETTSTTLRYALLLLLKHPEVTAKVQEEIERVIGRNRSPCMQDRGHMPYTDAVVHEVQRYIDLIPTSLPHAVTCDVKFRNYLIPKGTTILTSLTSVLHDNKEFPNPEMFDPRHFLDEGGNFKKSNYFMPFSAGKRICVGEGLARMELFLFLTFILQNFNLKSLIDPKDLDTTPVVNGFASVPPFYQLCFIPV

CC(=O)O[C@@H]1[C@@H](C)CC[C@]2(O)[C@]3(C)CC(=O)O[C@]12[C@@]1(O)C(C)=C(C(C)C)C[C@@]31O [AHC, anhydrocinnzeylanine]
not observed: metabolites of AHC from reaction with CYP1A2 (CYP1A2) | metabolites of AHC from reaction with CYP2A6 (CYP2A6) | metabolites of AHC from reaction with CYP2B6 (CYP2B6) | metabolites of AHC from reaction with CYP2C19 (CYP2C19) | metabolites of AHC from reaction with CYP2C8 (CYP2C8) | metabolites of AHC from reaction with CYP2C9 (CYP2C9) | metabolites of AHC from reaction with CYP2D6 (CYP2D6) | metabolites of AHC from reaction with CYP2E1 (CYP2E1)
